Assay results as given in ChEMBL document CHEMBL5244236, “Antitumor activity and structure-activity relationship of heparanase inhibitors: Recent advances” (Eur J Med Chem, 2020).

Key:
[1] = Antiangiogenic activity in VEGF-stimulated human endothelial cells assessed as inhibition of cell growth and measured after 11 days by immunohistochemical staining based analysis; details: 264 h
[2] = biological target: T1, Heparanase (Homo sapiens, UniProt Q9Y251); experiment: Inhibition of HPSE (unknown origin)
T1 sequence (Q9Y251 whole entry): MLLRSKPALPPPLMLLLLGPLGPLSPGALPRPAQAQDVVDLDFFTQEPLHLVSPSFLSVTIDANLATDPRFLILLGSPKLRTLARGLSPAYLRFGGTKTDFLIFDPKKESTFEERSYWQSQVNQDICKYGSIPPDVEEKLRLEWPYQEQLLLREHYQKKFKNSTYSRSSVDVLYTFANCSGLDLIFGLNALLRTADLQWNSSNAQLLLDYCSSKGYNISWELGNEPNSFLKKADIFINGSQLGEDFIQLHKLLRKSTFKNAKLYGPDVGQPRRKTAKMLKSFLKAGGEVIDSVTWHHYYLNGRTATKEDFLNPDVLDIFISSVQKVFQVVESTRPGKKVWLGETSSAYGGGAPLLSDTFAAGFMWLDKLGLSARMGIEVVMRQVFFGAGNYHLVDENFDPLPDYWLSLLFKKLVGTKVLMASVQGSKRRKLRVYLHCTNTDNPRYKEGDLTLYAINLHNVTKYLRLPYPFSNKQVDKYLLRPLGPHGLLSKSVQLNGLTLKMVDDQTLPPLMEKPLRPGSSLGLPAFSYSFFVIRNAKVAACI

[3] = test system: HT-1080; experiment: Anti-invasive activity against human HT-1080 cells assessed as inhibition of cell invasive
[4] = test system: HT-1080; experiment: Antimigratory activity against human HT-1080 cells assessed as inhibition of cell migration
[5] = biological target: T1, Heparanase; experiment: Inhibition of human HPSE assessed as residual amount of heparin using porcine heparin as substrate preincubated for 5 mins followed by substrate addition and measured after 15 mins by spectrophotometric analysis
[6] = test system: B16-F10; experiment: Inhibition of cell migration in mouse B16-F10 cells by wound healing assay
[7] = Antiproliferative activity against mouse Lewis lung carcinoma cell line assessed as reduction in cell proliferation by MTT assay; format: functional, cell-based
[8] = test system: HepG2; experiment: Antiproliferative activity against human HepG2 assessed as reduction in cell proliferation by MTT assay; format: functional, cell-based
[9] = test system: HepG2; experiment: Anti-invasive activity against human HepG2 assessed as inhibition of cell invasion incubated for 48 hrs by transwell assay; format: functional, cell-based; details: HepG2, 48 h
[10] = Antimigratory activity against mouse Lewis lung carcinoma cell line assessed as inhibition of cell migration incubated for 24 hrs by Wound healing assay; format: functional, cell-based
[11] = test system: HepG2; experiment: Antimigratory activity against human HepG2 assessed as inhibition of cell migration incubated for 48 hrs by Wound healing assay; format: functional, cell-based; details: HepG2, 48 h
[12] = Anti-invasive activity against mouse Lewis lung carcinoma cell line assessed as inhibition of cell invasion incubated for 24 hrs by transwell assay; format: functional, cell-based
[13] = Antiangiogenic activity in bFGF-stimulated human microvascular endothelial cells assessed as inhibition of cell growth incubated for 72 hrs; format: functional, cell-based, Cardiac microvascular endothelial cell

For `O=C(O)c1ccc2c(c1)C(=O)N(c1cccc(-c3nc4ccccc4o3)c1)C2=O`, the IC50 [1] was 40 µM.

With `CCCCCCCCCCCCCCCC(=O)C1=C(OC)[C@@H](CO)OC1=O` the IC50 [2] was greater than 100 µM.

`CCCCCCCCCCCCCCCC(=O)C1=C(OCc2ccccc2)[C@@H](CO)OC1=O` gave an IC50 [3] of 3000 nM and an IC50 [4] of 3000 nM.

In the case of `CCCCCCCCCCCCCCCc1cc(O[C@@H]2O[C@H](C(=O)O)[C@@H](O)[C@H](O)[C@H]2O)cc(O)c1C(=O)Oc1cc(C)c(C(=O)O)c(O)c1`, the IC50 [5] is reported as 3 µM and the IC50 [6] is reported as 15 µM.

For `CCCCCCCCCCCCCCCc1cc(O[C@@H]2O[C@H](C(=O)OC)[C@@H](O)[C@H](O)[C@H]2O)cc(O)c1C(=O)Oc1cc(C)c(C(=O)O)c(O)c1`, the IC50 [6] was 30 µM.

For `Oc1c(I)cc(I)cc1-c1nn2c(-c3ccccc3)nnc2s1`, the IC50 [7] was 11.9 µM, the IC50 [8] was 8.3 µM and the IC50 [9] was 5 µM. It also gave an IC50 [10] of 5 µM, an IC50 [11] of 5 µM and an IC50 [12] of 5 µM.

`CCCCCCCCCCCCCCCC(=O)C1=C(OC(C)C)[C@@H](CO)OC1=O` showed an IC50 [2] greater than 100 µM.

`Cc1ccc(C(=O)Nc2ccc(S(=O)(=O)O)c3cc(S(=O)(=O)O)cc(S(=O)(=O)O)c23)cc1NC(=O)c1cccc(NC(=O)Nc2cccc(C(=O)Nc3cc(C(=O)Nc4ccc(S(=O)(=O)O)c5cc(S(=O)(=O)O)cc(S(=O)(=O)O)c45)ccc3C)c2)c1` [SURAMIN] gave an IC50 [13] of 538 nM.
